Experimental data from ChEMBL document CHEMBL1158779, “Sulfur-containing polybromoindoles from the Formosan red alga Laurencia brongniartii” (J Nat Prod, 2005).
Active and inactive are the calls of the source. The rule behind the calls is not given here.

How the values were obtained:
HT-29 = assay: Cytotoxicity against human HT-29 cells; format: functional, cell-based
P388 = assay: Cytotoxicity against mouse P388 cells; format: functional, cell-based

Row | SMILES | Activity (HT-29) | Activity (P388)
1 | CSc1cc2c(Br)cc(Br)cc2[nH]1 | inactive | inactive
2 | CSc1[nH]c2cc(Br)cc(Br)c2c1SC | inactive | inactive
3 | CSc1c(Br)[nH]c2cc(Br)cc(Br)c12 | inactive | inactive
4 | CSc1[nH]c2cc(Br)cc(Br)c2c1-c1c([S+](C)[O-])[nH]c2cc(Br)cc(Br)c12 (centres undefined) | Active | Active
5 | CSc1[nH]c2cc(Br)cc(Br)c2c1-c1c(SC)[nH]c2cc(Br)cc(Br)c12 | inactive | inactive
6 | CSc1c(Br)[nH]c2cc(Br)c(Br)c(Br)c12 | inactive | inactive
7 | CSc1c([S+](C)[O-])[nH]c2cc(Br)c(Br)c(Br)c12 (centres undefined) | inactive | inactive
8 | C[S+]([O-])c1[nH]c2cc(Br)cc(Br)c2c1[S+](C)[O-] (centres undefined) | inactive | inactive
9 | CSc1c([S+](C)[O-])[nH]c2cc(Br)cc(Br)c12 (centres undefined) | inactive | inactive
10 | C[S+]([O-])c1c(Br)[nH]c2cc(Br)cc(Br)c12 (centres undefined) | inactive | inactive
11 | CSc1[nH]c2cc(Br)c(Br)c(Br)c2c1SC | inactive | inactive
12 | C[S+]([O-])c1[nH]c2cc(Br)cc(Br)c2c1-c1c([S+](C)[O-])[nH]c2cc(Br)cc(Br)c12 (centres undefined) | inactive | Active
